Where two headings read alike, the source gives them in different places.
How the values were obtained:
[1] = biological target: T1, OR2AT4 (Homo sapiens, UniProt A6NND4); test: Calcium imaging; assay type: cell-based; settings: 0 to 1 mM; OR2AT4-expressing cells
T1 sequence (A6NND4 1-320): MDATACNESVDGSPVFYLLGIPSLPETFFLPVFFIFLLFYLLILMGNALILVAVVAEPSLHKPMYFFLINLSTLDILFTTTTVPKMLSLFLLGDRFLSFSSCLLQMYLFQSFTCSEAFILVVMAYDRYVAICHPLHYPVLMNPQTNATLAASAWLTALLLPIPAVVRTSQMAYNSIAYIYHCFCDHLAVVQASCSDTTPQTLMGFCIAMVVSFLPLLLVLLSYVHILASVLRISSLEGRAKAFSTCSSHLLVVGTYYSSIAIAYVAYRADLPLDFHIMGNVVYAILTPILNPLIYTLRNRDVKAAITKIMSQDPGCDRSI

[2] = test system: K562 cells; test: Calcium imaging; assay type: cell-based, human
[3] = test system: Molt-4 cells; test: Calcium imaging; assay type: cell-based
[4] = test system: K562 cells; test: Cell viability assay; assay type: cell-based, human; settings: for IC50: Homo sapiens, read-out: IC50 (cell viability); for cell viability: K562
[5] = test system: Molt-4 cells; test: Cell viability assay; assay type: cell-based; settings: 24, 48, and 72 h
[6] = test system: K562 cells; test: Apoptosis assay; assay type: cell-based, human; settings: for percentage of total apoptotic cells: 200 μM
[7] = test system: K562 cells; test: Western blotting of proliferation- and apoptosis-related proteins in K562 cells; assay type: cell-based, human; settings: for cleaved caspase-3 after inhibitor treatment: Fig. 6B,D, similar to EGCG treatment
[8] = biological target: T2, OR2AT4-6xHis protein (Homo sapiens, UniProt A6NND4); test: SPR sensorgrams on immobilized OR2AT4-6xHis, concentration series; assay type: binding; settings: 100 μM (Fig. 2A)
T2 sequence (A6NND4 1-320): T1 sequence (A6NND4 1-320)

[9] = K562, EGCG 200 μM, 30 min after treatment
[10] = OR2AT4 siRNA-transfected K562 cells, EGCG treatment

## COc1cc2c3cc1Oc1c(OC)c(OC)cc4c1[C@@H](Cc1ccc(O)c(c1)Oc1ccc(cc1)C[C@@H]3N(C)CC2)N(C)CC4 [Berbamine]
[1]
  intracellular calcium response, dose-response: increased intracellular calcium levels in a concentration-dependent manner

## O=C(O[C@@H]1Cc2c(O)cc(O)cc2O[C@@H]1c1cc(O)c(O)c(O)c1)c1cc(O)c(O)c(O)c1 [EGCG, (−)-epigallocatechin gallate]
[1]
  intracellular calcium response, dose-response: increased intracellular calcium levels in a concentration-dependent manner
[2]; 0.2 mM
  intracellular calcium response in K562 cells: elevated the calcium response
[3]; 200 μM
  intracellular calcium response in Molt-4 cells: no immediate calcium response
[4]; K562, 48 h
  IC50: 146 µM
[4]; K562, 72 h
  IC50: 158 µM
[4]; 24, 48, and 72 h, 0-500 μM
  cell viability: decreased cell viability in a time- (24, 48, and 72 h) and concentration-dependent manner
[5]
  concentrations with sudden onset of cell death: above 100 μM
[6]; 200 μM, 24, 48, and 72 h
  percentage of late apoptotic cells, time course: increased the percentage of late apoptotic cells in a time-dependent manner
[6]; 24 h
  percentage of total apoptotic cells: 50%
[6]; 48 h
  percentage of total apoptotic cells: 58.03%
[6]; 72 h
  percentage of total apoptotic cells: 64.52%
[7]; K562
  expression of Bax: no significant difference
  expression of Bcl-2: no significant difference
[7]; K562, 200 μM, 24 and 48 h
  levels of cleaved caspase-3, time course: increased in a time-dependent manner
[7]; [9]
  protein level of phosphor-AKT: downregulated
  protein level of phosphor-p38 MARK: downregulated
[7]; K562, EGCG 200 μM, starting from 15 min
  expression of phosphor-STAT5: began to decrease
[7]; K562, time- and concentration-dependent
  expression levels of cleaved caspase-8: upregulated
[7]; [10]
  caspase-8 in OR2AT4 siRNA-transfected K562 cells: significantly reduced
  cleaved caspase-3 in OR2AT4 siRNA-transfected K562 cells: significantly reduced

## CCCCCCCCCCCCCCCCCCOP(=O)([O-])OC1CC[N+](C)(C)CC1 [Perifosine, reference compound]
[7]; K562, Fig. 6A
  p-Akt: downregulation
[7]; K562
  cleaved caspase-3 after inhibitor treatment: upregulation

## C[S+]([O-])c1ccc(-c2nc(-c3ccncc3)c(-c3ccc(F)cc3)[nH]2)cc1 (stereo not drawn) [SB203580, reference compound]
[7]; K562
  cleaved caspase-3 after inhibitor treatment: upregulation
[7]; K562, Fig. 6C
  p-p38 MAPK: downregulation

## CC1=CCC(CCC(C)C(C)O)C1(C)C (stereo not drawn) [Sandalore, reference compound]
[8]
  reactivity with OR2AT4 recombinant protein (SPR): confirming the reactivity
[1]
  intracellular calcium response, dose-response: increased calcium response in a concentration-dependent manner
[2]; 2 mM
  intracellular calcium response in K562 cells: increased intracellular Ca^2+ levels
[3]; 2 mM
  intracellular calcium response in Molt-4 cells: no immediate calcium response
[4]; Fig. S2
  cell viability: decreased cell viability in a concentration-dependent manner
